Data published in US9974305B2, “Fungicidal or bactericidal composition, and method for controlling diseases” (NISSAN CHEMICAL INDUSTRIES, LTD., priority 2014, dated 2018).

Tests used:
[1] = tested on: rice sheath blight fungus (Rhizoctonia solani); experiment: Efficacy test on rice sheath blight, spray treatment and prevention test (Test Examples 5-6); assay type: in vivo; conditions: single compound 250 ppm, lesion height
Procedure: An agent comprising the following compound listed in Table 2 (active ingredient A) and the compound listed in Table 6 (C17: active ingredient B) as active ingredients, was prepared in accordance with the above Formulation Example. The agent was diluted with water to a predetermined concentration to obtain a test solution. Then, in a plastic pot of 90 cm^3, rice (Nipponbare) was seeded by 5 grains in one place, and to the grown seedlings in 4 seedling phase, the test solution was applied by a spray gun in an amount of 5 ml per pot, for treatment.
One day after the treatment, 1 g of mycelium flora of rice sheath blight fungus (Rhizoctonia solani) cultured in bran medium, was put by […] to a close-to-ground part of seedlings, and the pot was placed in a moist chamber set in temperature of 25° C. and humidity more than 95% RH for eight days. The height of the lesions which appeared in the highest position from the close-to-ground part (lesion height) was investigated, and the preventive value was calculated in accordance with the following formula. Preventive value=[1−(treated plot lesion height/untreated plot lesion height)]×100
Further, from the preventive value for each agent concentration, synergy was calculated by using the Colby method (Colby S. R. 1976, Weeds 15, 20-22).
Using the following compound listed in Table 2 (active ingredient A) and the compound listed in Table 6 (C17: active ingredient B) as active ingredients, a preventive test on rice sheath blight was conducted in accordance with the above Test Example 5.

[2] = tested on: wheat glume blotch (Leptosphaeria nodorum); experiment: Efficacy test on wheat glume blotch, spray treatment and prevention test (Test Example 8); assay type: in vivo; conditions: spray, lesion area ratio; for pest or weed control at 3 ppm / pest or weed control at 10 ppm: Parastagonospora nodorum, read-out: Preventive value
How it was run: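 Wheat seedlings (Haruyutaka, 1-leaf stage) sprayed with diluted two-component formulation; one day later spray-inoculated with L. nodorum spores (1×100,000 cfu/ml), 48 h at 20° C, >95% RH, then 7 days greenhouse. Lesion area ratio gives preventive value versus untreated; synergy assessed by Colby method.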

[3] = tested on: cucumber powdery mildew (Sphaerotheca cucurbitae); experiment: Efficacy test on cucumber powdery mildew, irrigation treatment (Test Example 11); assay type: in vivo; conditions: concentration 500 ppm, cucumber (Sagami-hanjiro)
Procedure: An agent comprising the following compound listed in Table 2 (active ingredient A) and the compound listed in Table 6 (C18: active ingredient B), was prepared in accordance with the above Formulation Example. This agent was diluted with water to a predetermined concentration to obtain a test solution. 5 ml of the test solution was irrigated by a pipette to the close-to-ground part of cucumber seedlings at the 1 leaf stage (variety: Sagami-hanjiro), grown in a styrol cup with a diameter of 10 cm, and next day, the seedlings were transplanted to the to 4 cun pots. Then, after cultivation for 7 days in a glass greenhouse, to the first true leaf of the cucumber, a spore suspension (100,000 cfu/ml) of cucumber powdery mildew (Sphaerotheca cucurbitae) was inoculated by spraying. After 10 days in a glass greenhouse, the ratio of the formed lesion area occupying the inoculated leaves was measured, and the preventive value was calculated in accordance with the following formula. Preventive value=[1−(treated plot lesion area ratio/untreated plot lesion area ratio)]×100
Further, from the preventive value at each agent concentration, synergy was calculated by using the Colby method (Colby S. R. 1976, Weeds 15, 20-22).

Row | melting point | Structure (SMILES) | Preventive value ([1]; Test Example 5) | pest or weed control at 3 ppm ([2]; single compound 3 ppm) | pest or weed control at 10 ppm ([2]; single compound 10 ppm) | Preventive value [3] | Preventive value ([1]; Test Example 6) | Preventive value ([2]; single compound 3 ppm) | Preventive value ([2]; single compound 10 ppm)
1 | 102 to 103 °C | CC#Cc1cnc(/C(CNC(=O)c2cn(C)nc2C(F)F)=N\OC(C)C)c(Cl)c1 [Compound No. 20, (Z)—N-[2-[3-chloro-5-(1-propynyl)pyridin-2-yl]-2-(isopropoxyimino)ethyl]-3-difluoromethyl-1-methyl-1H-pyrazole-4-carboxamide] | 0 | 80% | 85% | 100 |  |  | 
2 | 105 to 107 °C | CC(C)O/N=C(/CNC(=O)c1cn(C)nc1C(F)F)c1ncc(C#CC2CC2)cc1Cl [Compound No. 25, (Z)—N-[2-[3-chloro-5-(cyclopropylethynyl)pyridin-2-yl]-2-(isopropoxyimino)ethyl]-3-difluoromethyl-1-methyl-1H-pyrazole-4-carboxamide] |  | 75% | 85% | 100 | 8 |  | 
3 |  | CC(C)O/N=C(/CNC(=O)c1ccccc1C(F)(F)F)c1ncc(Cl)cc1Cl [Compound No. 4] | 7 |  |  | 60 |  | 40 | 65
4 |  | CC(C)ON=C(CNC(=O)c1ccccc1C(F)(F)F)c1ncc(C(F)(F)F)cc1Cl [compound 14] | 6 |  |  | 22.5 |  | 75 | 80
5 |  | CON=C(CNC(=O)c1cn(C)nc1C(F)F)c1ncc(C#CC(C)(C)C)cc1Cl [compound 28] | 9 |  |  | 75 |  | 60 | 85
6 |  | COc1c(Cl)cnc(C(CNC(=O)c2ccccc2C(F)(F)F)=NOC(C)C)c1Cl [Compound No. 9] |  |  |  | 95 | 10 | 60 | 75
